In US12612386B2, “Heteroaryl-triazole compounds as pesticides” (Bayer Aktiengesellschaft, priority 2020, dated 2026):

Legend:
Assay type in all cases: in vivo
[1] = test system: fall armyworm larvae (Spodoptera frugiperda); assay: whole plant or invertebrate; settings: 168 h
Procedure: Spodoptera frugiperda—Spray Test
• Solvent: 78.0 parts by weight acetone • 1.5 parts by weight dimethylformamide • Emulsifier: alkylarylpolyglycol ether
To produce a suitable preparation of active compound, 1 part by weight of active compound is mixed with the stated amount of solvents and is diluted with water, containing an emulsifier concentration of 1000 ppm, to the desired concentration. Further test concentrations are prepared by dilution with emulsifier containing water.
Maize (Zea mays) leaf sections are sprayed with a preparation of the active ingredient of the desired concentration. Once dry, the leaf sections are infested with fall armyworm larvae (Spodoptera frugiperda).
After 7 days mortality in % is determined. 100% means all caterpillars have been killed and 0% means none of the caterpillars have been killed.
Spodoptera frugiperda—Spray Test (SPODFR)
After the specified period of time, mortality in % is determined. 100% means all caterpillars have been killed and 0% means none of the caterpillars have been killed.

[2] = test system: larvae of the banded cucumber beetle (Diabrotica balteata); assay: Diabrotica balteata spray test; settings: 168 h, 100 g/ha (=32 μg/well), after 7 days, read-out: efficacy (seedling growth)
Procedure: Diabrotica balteata—Spray Test
(§1) • Solvent: 78.0 parts by weight of acetone • 1.5 parts by weight of dimethylformamide • Emulsifier: alkylarylpolyglycol ether
(§2) To produce a suitable preparation of active compound, 1 part by weight of active compound is mixed with the stated amount of solvent, and the concentrate is diluted with water, containing an emulsifier concentration of 1000 ppm, to the desired concentration. Further test concentrations are prepared by dilution with emulsifier containing water.
Soaked wheat seeds (Triticum aestivum) are placed in a multiple well plate filled with agar and some water and are incubated for 1 day to germinate (5 seeds per well). The germinated wheat seeds are sprayed with a test solution containing the desired concentration of the active ingredient. Afterwards each unit is infected with 10-20 larvae of the banded cucumber beetle (Diabrotica balteata).
After 7 days efficacy in % is determined. 100% means all the seedlings have grown up like in the untreated, uninfected control; 0% means none of the seedlings have grown.

[3] = test system: larvae of the southern green stink bug (Nezara viridula); assay: whole plant or invertebrate; settings: 96 h
Procedure: Nezara viridula—Spray Test
as §1, §2
Barley plants (Hordeum vulgare) are sprayed with a test solution containing the desired concentration of the active ingredient and are infested with larvae of the southern green stink bug (Nezara viridula).
After 4 days mortality in % is determined. 100% means all the stink bugs have been killed; 0% means none of the stink bugs have been killed.

Structure (SMILES)	mortality at 100 g/ha [1] [%]	pest or weed control at 32 µg/disc, 100 g/ha [2] [%]	mortality at 500 g/ha [3] [%]
CC(NC(=O)c1cc(OC(F)(F)F)cc(S(=O)(=O)C2CC2)c1)c1ncnn1-c1cc(C#N)ncn1 (centres unmarked) [I-9]	100		
C[C@H](NC(=O)c1cc(Cl)cc(S(=O)(=O)c2ccc(Cl)cc2)c1)c1ncnn1-c1cc(C#N)ncn1 [I-11]	100	80	
C[C@H](NC(=O)c1cc(Br)cc(OC(F)(F)F)c1)c1nc(C2CC2)nn1-c1cc(C(N)=O)ncn1 [I-13, 6-[5-[(1S)-1-[[3-bromo-5-(trifluoromethoxy)benzoyl]amino]ethyl]-3-cyclopropyl-1,2,4-triazol-1-yl]pyrimidine-4-carboxamide]	100	100	
C[C@H](NC(=O)c1cc(OC(F)(F)F)cc(S(C)(=O)=O)c1)c1nc(C2CC2)nn1-c1cc(C#N)ncn1 [I-14]		100	
C[C@H](NC(=O)c1cc(Br)cc(OC(F)(F)F)c1)c1nc(C2CC2)nn1-c1cc(C#N)ncn1 [I-15, 3-bromo-N-[(1S)-1-[2-(6-cyanopyrimidin-4-yl)-5-cyclopropyl-1,2,4-triazol-3-yl]ethyl]-5-(trifluoromethoxy)benzamide]	100	100	
C[C@H](NC(=O)c1cc(Br)cc(OC(F)F)c1)c1nc(C2CC2)nn1-c1cc(C#N)ncn1 [I-16]		100	
C[C@H](NC(=O)c1cc(OC(F)(F)F)cc(C2CC2)c1)c1nc(C2CC2)nn1-c1cc(C#N)ncn1 [I-17]		100	
Cc1nc([C@H](C)NC(=O)c2cc(Cl)cc(S(=O)(=O)C(F)(F)F)c2)n(-c2cc(C#N)ncn2)n1 [I-24]	100	100	
Cc1nc([C@H](C)NC(=O)c2cc(Br)cc(OC(F)F)c2)n(-c2cc(C#N)ncn2)n1 [I-26]	100	100	
Cc1nc([C@H](C)NC(=O)c2cc(Cl)cc(S(=O)(=O)C(F)F)c2)n(-c2cc(C#N)ncn2)n1 [I-27]	100	100	
Cc1nc([C@H](C)NC(=O)c2cc(OC(F)(F)F)cc(S(C)(=O)=O)c2)n(-c2cc(C#N)ncn2)n1 [I-30]	100	100	100
C[C@H](NC(=O)c1cc(OC(F)(F)F)cc(C2(C#N)CC2)c1)c1nc(C2CC2)nn1-c1cc(C#N)ncn1 [I-43]	100	80	
C[C@H](NC(=O)c1cc(OC(F)(F)F)cc(S(C)(=O)=O)c1)c1nc(C2CC2)nn1-c1cc(C(N)=O)ncn1 [I-47]	100	100	
C[C@H](NC(=O)c1cc(C#N)cc(OC(F)(F)F)c1)c1nc(C2CC2)nn1-c1cc(C#N)ncn1 [I-53]		100	
C[C@H](NC(=O)c1cc(Br)cc(C2CC2(Cl)Cl)c1)c1ncnn1-c1cc(C#N)ncn1 (some centres unmarked) [I-54]	100	100	
CNC(=O)c1cc(-n2nc(C)nc2[C@H](C)NC(=O)c2cc(Cl)cc(S(C)(=O)=O)c2)ncn1 [I-62]	83		100
C[C@H](NC(=O)c1cc(OC(F)(F)F)cc(S(=O)(=O)C(F)(F)F)c1)c1ncnn1-c1cc(C#N)ncn1 [I-91]	100	100	
Cc1nc([C@H](C)NC(=O)c2cc(F)cc(C#N)c2)n(-c2cc(C(N)=O)ncn2)n1 [I-96]			100
Cc1nc([C@H](C)NC(=O)c2cc(OC(F)F)cc(OC(F)F)c2)n(-c2cc(C(=O)N(C)C(C)C)ncn2)n1 [I-100]	83		
C[C@H](NC(=O)c1cc(Br)cc(OC(F)F)c1)c1nc(C2CC2)nn1-c1cc(C(N)=O)ncn1 [I-104]	100	100	

Structure (SMILES)	mortality at 100 g/ha [1] [%]	pest or weed control at 32 µg/disc, 100 g/ha [2] [%]	mortality at 500 g/ha [3] [%]
C[C@H](NC(=O)c1cc(C(F)(F)F)cc(C(F)(F)F)c1)c1nc(C2CC2)nn1-c1cc(C(N)=O)ncn1 [I-105]	100	100	
C[C@H](NC(=O)c1cc(Cl)cc(OC(F)(F)F)c1)c1nc(C2CC2)nn1-c1cc(C(N)=O)ncn1 [I-106]	100	100	
C[C@H](NC(=O)c1cc(S(=O)(=O)C(F)(F)F)cc(S(=O)(=O)C(F)(F)F)c1)c1nc(C2CC2)nn1-c1cc(C(N)=O)ncn1 [I-107]	100	100	
C[C@H](NC(=O)c1cc(C(F)(F)F)cc(S(C)(=O)=O)c1)c1nc(C2CC2)nn1-c1cc(C(N)=O)ncn1 [I-108]	100		
C[C@H](NC(=O)c1cc(Cl)cc(S(=O)(=O)C(F)(F)F)c1)c1nc(C2CC2)nn1-c1cc(C(N)=O)ncn1 [I-109]	100	100	
CC(C)N(C)C(=O)c1cc(-n2ncnc2[C@H](C)NC(=O)c2cccc(OC(F)(F)F)c2)ncn1 [I-111]	100		
C[C@H](NC(=O)c1cc(Cl)cc(OC(F)(F)C(F)(F)I)c1)c1ncnn1-c1cc(C(N)=O)ncn1 [I-114, 6-(5-{(1S)-1-[3-chloro-5-(1,1,2,2-tetrafluoro-2-iodoethoxy)benzamido]ethyl}-1H-1,2,4-triazol-1-yl)pyrimidine-4-carboxamide]	100	100	
CC(C)N(C)C(=O)c1cc(-n2ncnc2[C@H](C)NC(=O)c2cc(Br)cc(OC(F)(F)C(F)F)c2)ncn1 [I-123]	100		
Cc1nc([C@H](C)NC(=O)c2cc(Cl)cc(C#N)c2)n(-c2cc(C(N)=O)ncn2)n1 [I-131]		100	100
CSc1cc(OC(F)F)cc(C(=O)N[C@@H](C)c2nc(C3CC3)nn2-c2cc(C(N)=O)ncn2)c1 [I-137]	100		
C[C@H](NC(=O)c1cc(OC(F)(F)F)cc(S(=O)(=O)C(F)F)c1)c1nc(C2CC2)nn1-c1cc(C(N)=O)ncn1 [I-144]	100		
C[C@H](NC(=O)c1cc(Br)cc(Br)c1)c1nc(C2CC2)nn1-c1cc(C(N)=O)ncn1 [I-145]	100	100	
C[C@H](NC(=O)c1cc(OC(F)(F)F)cc(C2CC2)c1)c1nc(C2CC2)nn1-c1cc(C(N)=O)ncn1 [I-146]	100	100	
C[C@H](NC(=O)c1cc(C(F)F)cc(C(F)F)c1)c1nc(C2CC2)nn1-c1cc(C(N)=O)ncn1 [I-147]	100		100
C[C@H](NC(=O)c1cc(Cl)cc(S(=O)(=O)C(F)F)c1)c1nc(C2CC2)nn1-c1cc(C(N)=O)ncn1 [I-151]	83		
C[C@H](NC(=O)c1cc(OC(F)F)cc(C2CC2)c1)c1nc(C2CC2)nn1-c1cc(C(N)=O)ncn1 [I-153]	100	100	
CNC(=O)c1cc(-n2nc(C3CC3)nc2[C@H](C)NC(=O)c2cc(OC(F)(F)F)cc(S(C)(=O)=O)c2)ncn1 [I-155]	100		100
C[C@H](NC(=O)c1cc(OC(F)(F)F)cc(S(=O)(=O)C(F)(F)F)c1)c1nc(C2CC2)nn1-c1cc(C(=O)N(C)C)ncn1 [I-157]	100	100	
C[C@H](NC(=O)c1cc(Br)cc(Br)c1)c1nc(C2CC2)nn1-c1cc(C(=O)N(C)C)ncn1 [I-158]	100	100	
C[C@H](NC(=O)c1cc(OC(F)(F)F)cc(OC(F)(F)F)c1)c1nc(C2CC2)nn1-c1cc(C(=O)N(C)C)ncn1 [I-165]	100	100	
